This passage reports Kd results from article PMC9868454, “Exploring novel targets of sitagliptin for type 2 diabetes mellitus: Network pharmacology, molecular docking, molecular dynamics simulation, and SPR approaches” (Frontiers in Endocrinology, 2023).

The assay deals with angiotensin-converting enzyme 2 (ACE2) (Homo sapiens, UniProt Q9BYF1). Nature of the assay: SPR (Biacore T200, ACE2 coupled to CM5 chip, steady-state affinity fit). It is filed as binding.
angiotensin-converting enzyme 2 (ACE2), sequence (Q9BYF1 18-805): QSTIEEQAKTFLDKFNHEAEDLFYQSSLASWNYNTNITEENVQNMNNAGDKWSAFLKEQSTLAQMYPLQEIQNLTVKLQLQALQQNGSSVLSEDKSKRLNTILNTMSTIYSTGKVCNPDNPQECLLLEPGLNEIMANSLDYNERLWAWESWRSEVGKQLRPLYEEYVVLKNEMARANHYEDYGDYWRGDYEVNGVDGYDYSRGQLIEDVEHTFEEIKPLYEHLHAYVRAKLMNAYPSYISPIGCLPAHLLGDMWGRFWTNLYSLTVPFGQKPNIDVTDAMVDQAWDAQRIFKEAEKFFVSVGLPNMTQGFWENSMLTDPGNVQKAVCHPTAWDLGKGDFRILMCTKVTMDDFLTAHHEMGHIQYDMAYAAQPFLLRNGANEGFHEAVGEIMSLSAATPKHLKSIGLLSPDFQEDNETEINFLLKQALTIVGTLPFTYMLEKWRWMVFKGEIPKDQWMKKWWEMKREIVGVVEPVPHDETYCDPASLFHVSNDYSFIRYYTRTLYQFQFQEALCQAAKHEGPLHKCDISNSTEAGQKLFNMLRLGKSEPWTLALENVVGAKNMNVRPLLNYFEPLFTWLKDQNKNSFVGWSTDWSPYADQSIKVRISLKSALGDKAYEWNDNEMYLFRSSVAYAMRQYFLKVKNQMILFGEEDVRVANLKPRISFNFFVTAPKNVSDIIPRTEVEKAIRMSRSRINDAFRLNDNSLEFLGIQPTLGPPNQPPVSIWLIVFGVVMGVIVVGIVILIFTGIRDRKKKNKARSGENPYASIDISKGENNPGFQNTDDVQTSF

A word on the Kd: it is the equilibrium constant for the complex coming apart. Lower therefore signals a tighter complex. In turn, `N[C@@H](CC(=O)N1CCn2c(nnc2C(F)(F)F)C1)Cc1cc(F)c(F)cc1F` [sitagliptin] displayed a Kd of 35.1 nM.
